Reference: EP0882010B1, “PHARMACEUTICAL AGENTS CONTAINING PERFLUOROALKYL-CONTAINING METAL COMPLEXES AND THE USE THEREOF IN TUMOUR THERAPY AND INTERVENTIONAL RADIOLOGY” (SCHERING AKTIENGESELLSCHAFT, priority 1996, dated 1997)
“Also recorded” adds a separate entry of the source. Where two headings read alike, the source gives them in different places.

Key:
[1] = T1 relaxivity at 20 MHz, 37°C; format: physicochemical
Procedure: c) Gadolinium-Komplex von 10-[2-Hydroxy-4-aza-5-oxo-7-aza-7-(perfluoroctylsulfonyl)-nonyl]-1,4,7-tris(carboxymethyl)-1,4,7,10-tetraazacyclododecan 10 g (17,09 mmol) der Titelverbindung aus Beispiel 1b) und […] (18,79 mmol) N-Hydroxysuccinimid werden in einer Mischung aus 50 ml Dimethylformamid/50 ml Chloroform gelöst. Bei 0°C gibt man 3,88 g (18,79 mmol) Dicyclohexylcarbodiimid zu und rührt 1 Stunde bei 0°C, anschließend 3 Stunden bei Raumtemperatur. Man kühlt erneut auf 0°C und gibt 5,19 g (51,27 mmol) Triethylamin/50 ml 2-Propanol zu. Anschließend werden 10,78 g (18,79 mmol) Gadolinium-Komplex von 10-(3-Amino-2-hydroxy-propyl)-1,4,7-tris(carboxymethyl)-1,4,7,10-tetraazacyclododecan (WO 95/17451) gelöst in 50 ml Wasser zugegeben und 3 Stunden bei Raumtemperatur gerührt. Man dampft zur Trockne ein, nimmt den Rückstand in einer Mischung aus 200 ml Methanol/100 ml Chloroform auf und filtriert vom Dicyclohexylharnstoff ab. Das Filtrat wird zur Trockne eingedampft und durch RP-Chromatographie gereinigt (RP-18/Laufmittel: Gradient aus Wasser/n-Propanol/ Acetonitril). Ausbeute: 16,37 g (78 % d. Th.) eines farblosen glasigen Feststoffes Wassergehalt: 7,1 % T1-Relaxivität (L/mmol·sec) bei 20 MHz, 37°C: 41 (Wasser) 49 (Humanplasma)
e) Mangan-Komplex von 10-[2-Hydroxy-4-aza-5-oxo-7-aza-7-(perfluoroctylsulfonyl)-nonyl]-1,4,7-tris(carboxymethyl)-1,4,7,10-tetraazacyclododecan (als Natriumsalz) 5 g (5,07 mmol) der Titelverbindung aus Beispiel ld) werden in 100 ml Wasser gelöst und 0,58 g (5,07 mmol) Mangan(II) -carbonat zugegeben. Man rührt3 Stunden bei 80°C. Die Lösung wird filtriert und das Filtrat mit 1 N Natronlauge auf pH 7,2 gestellt, anschließend wird gefriergetrocknet. Ausbeute: 5,87 g (quantitativ) eines farblosen amorphen Pulvers Wassergehalt: 8,4 % T1-Relaxivität (L/mmol·sec) bei 20 MHz, 37°C: 2,7 (Wasser) 4,2 (Humanplasma)
c) Gadolinium-Komplex von 10-[2-Hydroxy-4-aza-5-oxo-7-oxa-10,10,11,11,12,12,13,13,14,14,15,15,16,16,17,17,17-heptadecafluor-heptadecyl]-1,4,7-tris(carboxymethyl)-1,4,7,10-tetraazacyclododecan 7,0 g (13,41 mmol) der Titelverbindung aus Beispiel 2b) und 1,70 g (14,75 mmol) N-Hydroxysuccinimid werden in einer Mischung aus 30 ml Dimethylformamid/ 20 ml Chloroform gelöst. Bei 0°C gibt man 3,04 g (14,75 mmol) Dicyclohexylcarbodiimid zu und rührt 1 Stunde bei 0°C, anschließend 3 Stunden bei Raumtemperatur. Man kühlt erneut auf 0°C und gibt 4,48 g (44,25 mmol) Triethylamin/50 ml 2-Propanol zu. Anschließend werden 8,46 g (14,75 mmol) Gadolinium-Komplex von 10-(3-Amino-2-hydroxy-propyl)-1,4,7-tris(carboxymethyl)-1,4,7,10-tetraazacyclododecan gelöst in 40 ml Wasser zugegeben und 3 Stunden bei Raumtemperatur gerührt. Man dampft zur Trockne ein, nimmt den Rückstand in einer Mischung aus 100 ml Methanol/30 ml Chloroform auf und filtriert vom Dicyclohexylharnstoff ab. Das Filtrat wird zur Trockne eingedampft und durch RP-Chromatographie gereinigt (RP-18/Laufmittel: Gradient aus Wasser/n-Propanol/Acetonitril). Ausbeute: 11,8 g (75 % d. Th.) eines farblosen glasigen Feststoffes Wassergehalt: 8,2 % T1-Relaxivität (L/mmol·sec) bei 20 MHz, 37°C: 19 (Wasser) 33 (Humanplasma)
c) Gadolinium-Komplex von 10-[-2Hydroxy-4-oxa-1H,1H,2H,3H,3H,5H,5H,6H,6H-perfluor-tetradecyl]-1,4,7-tris(carboxymethyl)-1,4,7,10-tetraazacyclododecan 10 g (11,54 mmol) der Titelverbindung aus Beispiel 3b) werden in einer Mischung aus 100 ml Wasser/50 ml 2-Propanol gelöst und 2,09 g (5,77 mmol) Gadoliniumoxid zugegeben. Man rührt 3 Stunden bei 80°C. Die Lösung wird filtriert und im Vakuum zur Trockne eingedampft. Ausbeute: 12,48 g (quantitativ) eines glasigen Feststoffes Wassergehalt: 5,6 % T1-Relaxivität (L/mmol·sec) bei 20 MHz, 37°C: 15,2 (Wasser) 27,5 (Humanplasma)

Lebergefäße am Kaninchen = experiment: Embolisation of the liver vessels in the rabbit, followed by X-ray; format: in vivo
Procedure: Als gut darstellbare Gefäße wurden die Lebergefäße am Kaninchen embolisiert.
Dem narkotisierten Tier wurde ein Katheter (60 cm lang, 1,5 mm Øa) über die A. femoralis bis in die Leberarterie durch die Aorta vorgeschoben. Die Lösung von Gadoliniumkomplex aus Beispiel 1c) (50 mmol/L mit 150 mg J/ml Isovist ®) wurde mit 160 µL/min appliziert. Gesamtvolumen 800 µL. Anschließend wurde der Katheter in die Aorta zurückgezogen, um die arterielle Blutversorgung der Leber im weiteren Verlauf nicht zu beeinträchtigen. […] Zum Teil ist die Abnahme der Signalintensität auf ein Herausdiffündieren des Röntgenkontrastmittels Isovist ® zurückzuführen.

VX-2 Tumorzellen = experiment: Therapy of a liver carcinoma in the rabbit (chemoembolisation, MRI control); format: in vivo, Chinchilla-Kaninchen; conditions: rabbit VX-2 liver tumour, 75 mmol/l solution with 50 mg Cisplatin, 8 ml via catheter, MRI after 7 days; control animals 3,7 ± 1,5
Procedure: Fünf männlichen Chinchilla-Kaninchen wurde durch Injektion von VX-2 Tumorzellen in den linken Leberlappen ein Tumor gesetzt. Dem narkotisiertem Tier wurde ein Katheter (60 cm lang, 1 mm Øa) über die Arteria femoralis bis in die Nähe des Tumors vorgeschoben. Dann wurde eine Lösung der Titelverbindung aus Beispiel 1 c [75 mmol/l mit 50 mg Cisplatin (=[…]) appliziert. Gesamtvolumen 8 ml.
Anschließend wurde der Katheter entfernt. Nach 7 Tagen wurden die Tiere mittels MRI untersucht. Es zeigte sich, daß der Tumor sich in seiner Größe verringert hat (durchschnittlicher Wachstumsfaktor 0,8 ± 0,2). Bei den Kontrolltieren (3 Tiere) wurden jedoch Wachstumsraten von 3,7 ± 1,5 beobachtet.

Nierengefäße der Ratte = experiment: Embolisation of the renal vessels in the rat, followed by X-ray; format: in vivo
Procedure: Als gut darstellbare Gefäße wurden die Nierengefäße der Ratte embolisiert.
Dem Tier wurde ein Katheter (20 cm lang, 0,58 mm Øi in die A. mesentrerica eingebunden und in die A. renalis der linken Niere vorgeschoben. Die Lösung der Verbindung aus Beispiel 1 c) (hier 50 mmol/1 mit 150 mg J/ml Isovist ®) wurde mit 160 µl/min appliziert. Gesamtvolumen 250 µl. Anschließend wurde der Katheter in die A. mesenterica zurückgezogen, um die Blutversorgung der Nieren im weiteren Verlauf nicht zu beinträchtigen. […] Zur Kontrolle der Nierendurchblutung wurde 1 Stunde nach der lokalen Applikation der Verbindung aus Beispiel lc) 400 µl des nierengängigen Röntgenkontrastmittels Ultravist ® 300 mg J/ml i.v. in die Schwanzvene gegeben.
Direkt nach intraarterieller, lokaler Gabe von 250 µl einer Lösung der Verbindung aus Beispiel 1 c) (50 mmol/L + 150 mg J/ml Isovist ® )in die katherisierte Nierenarterie (linke Niere, im Bild rechts)
5' p.a. Ultravist ®, 400 µl i.v. 1 Stunde nach lokaler Gabe der Verbindung aus Beispiel 1c) wurde Ultravist ® über die Schwanzvene gegeben.

[2] = for Konsistenz mit Zusatz von Harnstoff: 8 mol/L Harnstoff (final), also at substance concentration 400 mmol/L; for Löslichkeit in 96% Ethanol / Löslichkeit in 66% DMSO/Wasser / Löslichkeit in 66% Propylenglycol/Wasser: free-flowing solution; for Löslichkeit in Rinderplasma: solution of comparable consistency; for Einfluß auf die Konsistenz der Zubereitung: addition of 10 mmol/L HCl or NaOH, or 3 mol/L NaCl; for Veränderung der Konsistenz durch Triton X-100 / Veränderung der Konsistenz durch Tween 80: aqueous formulation; for Veränderung der Konsistenz durch Triton X-100: Triton X-100, 1.7%; for Veränderung der Konsistenz durch Tween 80: Tween 80, 4.6% final concentration; for Löslichkeit in 66% DMSO/Wasser / Löslichkeit in 66% Propylenglycol/Wasser: gut löslich at this concentration; for concentration below which a frei fließende Lösung results: in water, printed as 'Unterhalb von etwa'; for Löslichkeit in reinem DMSO: pure DMSO; for Löslichkeit in reinem Propylenglycol: pure Propylenglycol
[3] = 100 mmol/L in water, by hand or infusion pump through a 20 cm, 0.58 mm Øi tube at 160 µL/min

Row | Structure (SMILES) | T1-Relaxivität ([1]; Humanplasma) | T1-Relaxivität ([1]; Wasser) | Applizierbarkeit der Lösung [2, 3] | Konsistenz der Lösung ([2]; 100 mmol/L solution in water) | Konsistenz mit Zusatz von Harnstoff [2] | Löslichkeit in 96% Ethanol [2] [mmol/L] | Löslichkeit in Rinderplasma [2] | Einfluß auf die Konsistenz der Zubereitung [2] | Veränderung der Konsistenz durch Triton X-100 [2] | Veränderung der Konsistenz durch Tween 80 [2] | Löslichkeit in 66% DMSO/Wasser [2] [mmol/L] | Löslichkeit in 66% Propylenglycol/Wasser [2] [mmol/L] | concentration below which a frei fließende Lösung results [2] [µM] | Löslichkeit in reinem DMSO [2] | Löslichkeit in reinem Propylenglycol [2] | other results
1 | CCN(CC(=O)NCC(O)CN1CCN(CC(=O)[O-])CCN(CC(=O)[O-])CCN(CC(=O)[O-])CC1)S(=O)(=O)C(F)(F)C(F)(F)C(F)(F)C(F)(F)C(F)(F)C(F)(F)C(F)(F)C(F)(F)F.[Gd+3] (stereo not drawn) [Beispiel 1c), Gadolinium-Komplex von 10-[2-Hydroxy-4-aza-5-oxo-7-aza-7-(perfluoroctylsulfonyl)-nonyl]-1,4,7-tris(carboxymethyl)-1,4,7,10-tetraazacyclododecan] | 49 L/mmol/s | 41 L/mmol/s | problemlos | klar durchsichtig und besitzt eine gelartig feste Konsistenz | frei fließende Lösung | > 500 | ebenso löslich wie in reinem Wasser | keinen Einfluß auf die Konsistenz | Verflüssigung der gelartigen Konsistenz | keine Veränderung der Konsistenz | ≥ 150 | ≥ 250 | 10000 to 20000 | praktisch unlöslich | praktisch unlöslich | Abgrenzung der Gefäße der Leber in Röntgenaufnahmen (Lebergefäße am Kaninchen; 800 µL of 50 mmol/L solution with 150 mg J/ml Isovist into liver artery at 160 µL/min): scharf gegenüber dem Leberparenchym abgegrenzt; Signalintensität der Gefäße in der Leber (Lebergefäße am Kaninchen; within 60 minutes after administration): nur langsam ab; durchschnittlicher Wachstumsfaktor des Tumors (VX-2 Tumorzellen): 0,8 ± 0,2; Abgrenzung der Gefäße der linken Niere in Röntgenaufnahmen (Nierengefäße der Ratte; 250 µl of 50 mmol/1 solution with 150 mg J/ml Isovist into A. renalis at 160 µl/min): scharf gegenüber dem Nierenparenchym abgegrenzt; Enhancement der embolisierten linken Niere und ihres Harnleiters (Nierengefäße der Ratte; 400 µl Ultravist 300 mg J/ml i.v. 1 hour after local application, non-embolised right kidney enhanced): kein Enhancement; also recorded: bleibt dunkel; Signalintensität der Gefäße in der Niere (Nierengefäße der Ratte; up to 45 minutes after administration, attributed to Isovist diffusing out): deutlich ab; Applizierbarkeit der Lösung ([2]; 100 mmol/1 in water with 100 mg J/ml Isovist, 20 cm, 0,58 mm Øi tube at 160 µl/min): problemlos; Konsistenz der Lösung ([2]; 100 mmol/1 solution in water with 100 mg J/ml Isovist): klar durchsichtig und besitzt eine gelartig feste Konsistenz
2 | CCN(CCCCCCCCCCC(=O)NCC(O)CN1CCN(CC(=O)[O-])CCN(CC(=O)[O-])CCN(CC(=O)[O-])CC1)S(=O)(=O)C(F)(F)C(F)(F)C(F)(F)C(F)(F)C(F)(F)C(F)(F)C(F)(F)C(F)(F)F.[Dy+3] (stereo not drawn) [Beispiel 30f)] |  |  | problemlos | klar durchsichtig und besitzt eine gelartig feste Konsistenz | frei fließende Lösung | > 500 | ebenso löslich wie in reinem Wasser | keinen Einfluß auf die Konsistenz | Verflüssigung der gelartigen Konsistenz | keine Veränderung der Konsistenz | ≥ 150 | ≥ 250 | 10000 to 20000 | praktisch unlöslich | praktisch unlöslich | 
3 | CCN(CC(=O)NCC(O)CN1CCN(CC(=O)[O-])CCN(CC(=O)[O-])CCN(CC(=O)[O-])CC1)S(=O)(=O)C(F)(F)C(F)(F)C(F)(F)C(F)(F)C(F)(F)C(F)(F)C(F)(F)C(F)(F)F.[Mn+2].[Na+] (stereo not drawn) [Beispiel 1e), Mangan-Komplex von 10-[2-Hydroxy-4-aza-5-oxo-7-aza-7-(perfluoroctylsulfonyl)-nonyl]-1,4,7-tris(carboxymethyl)-1,4,7,10-tetraazacyclododecan (als Natriumsalz)] | 4,2 L/mmol·sec | 2,7 L/mmol·sec |  |  |  |  |  |  |  |  |  |  |  |  |  | 
4 | O=C([O-])CN1CCN(CC(=O)[O-])CCN(CC(O)COCCC(F)(F)C(F)(F)C(F)(F)C(F)(F)C(F)(F)C(F)(F)C(F)(F)C(F)(F)F)CCN(CC(=O)[O-])CC1.[Gd+3] (stereo not drawn) [3c), Gadolinium-Komplex von 10-[-2Hydroxy-4-oxa-1H,1H,2H,3H,3H,5H,5H,6H,6H-perfluor-tetradecyl]-1,4,7-tris(carboxymethyl)-1,4,7,10-tetraazacyclododecan] | 27,5 L/mmol·sec | 15,2 L/mmol·sec |  |  |  |  |  |  |  |  |  |  |  |  |  | 
5 | O=C([O-])CN1CCN(CC(=O)[O-])CCN(CC(O)CNC(=O)COCCC(F)(F)C(F)(F)C(F)(F)C(F)(F)C(F)(F)C(F)(F)C(F)(F)C(F)(F)F)CCN(CC(=O)[O-])CC1.[Gd+3] (stereo not drawn) [2c), Gadolinium-Komplex von 10-[2-Hydroxy-4-aza-5-oxo-7-oxa-10,10,11,11,12,12,13,13,14,14,15,15,16,16,17,17,17-heptadecafluor-heptadecyl]-1,4,7-tris(carboxymethyl)-1,4,7,10-tetraazacyclododecan] | 33 L/mmol/s | 19 L/mmol/s |  |  |  |  |  |  |  |  |  |  |  |  |  | 
